{"source": "patent US20140243276A1", "about": "“SMAC MIMETIC (BIRINAPANT) FOR USE IN THE TREATMENT OF PROLIFERATIVE DISEASES (CANCER)” (TETRALOGIC PHARMACEUTICALS CORPORATION, priority 2011, published 2014)", "key": {"[1]": {"conditions": "mouse, in vivo"}, "[2]": {"conditions": "mouse, in vivo", "remark": "listed apart in the source"}, "[3]": {"conditions": "human, in vivo"}, "[4]": {"tested_on": "apoptosis pathway (PARP cleavage, caspase-3/7, cleaved cytokeratin-18)", "test": "Phase 1 apoptosis pathway activation markers in patients", "assay_type": "in vivo, human"}, "[5]": {"conditions": "in vivo"}, "[6]": {"tested_on": "primary pancreatic tumors", "test": "Patient-derived primary pancreatic cancer explant model", "experimental": "(§1) An additional 6 primary pancreatic tumors were evaluated at 60 mg/kg."}, "[7]": {"tested_on": "primary human melanoma tumor xenograft", "test": "Efficacy in primary human melanoma tumor xenograft models"}, "[8]": {"tested_on": "primary pancreatic tumors", "conditions": "mouse, in vivo", "experimental": "as §1"}, "[9]": {"test": "Phase 1 safety and tolerability in patients", "conditions": "for tolerability: patients"}, "Panc1": {"tested_on": "Panc1", "test": "Panc1 immunoblotting and Trypan blue staining, alone and with TRAIL", "assay_type": "cell-based"}, "[10]": {"tested_on": "advanced solid tumors and lymphoma", "test": "Phase 1 anti-tumor activity in patients with refractory solid tumors or lymphoma", "assay_type": "in vivo, human"}, "MDA-MB-231 xenograft": {"tested_on": "MDA-MB-231 xenograft", "test": "Tumor growth inhibition in MDA-MB-231 xenograft", "assay_type": "in vivo, mice"}, "[11]": {"conditions": "60 mg/kg i.p. twice weekly, 28 days"}, "[12]": {"conditions": "TL32711 combined with carboplatin and paclitaxel"}, "[13]": {"conditions": "patients with solid tumors and lymphoma"}, "[14]": {"conditions": "CRC Patient 01-202, dose cohort 0.36 mg/m^2"}, "[15]": {"conditions": "CRC Patient 01-801, dose cohort 17.2 mg/m^2"}, "[16]": {"conditions": "Melanoma Patient 01-703, dose cohort 11.5 mg/m^2"}}, "note": "Values joined by “and” are separate entries in the source; they are usually repeats but may differ in a detail not shown here. Equal values may be shown once. “Also recorded” adds a separate entry of the source."}
{"compound": "CC[C@H](NC(=O)[C@H](C)NC)C(=O)N1C[C@@H](O)C[C@H]1Cc1c(-c2[nH]c3cc(F)ccc3c2C[C@@H]2C[C@H](O)CN2C(=O)[C@H](CC)NC(=O)[C@H](C)NC)[nH]c2cc(F)ccc12", "note": "[TL32711, N-{1S-[2R-(6,6′-Difluoro-3′-{4S-hydroxy-1-[2S-(2S-methylamino-propionylamino)-butyryl]-pyrrolidin-2R-ylmethyl}-1H,1′H-[2,2′]biindolyl-3-ylmethyl)-4S-hydroxy-pyrrolidine-1-carbonyl]-propyl}-2S-methylamino-propionamide]", "values": [{"measurement": "half-life in plasma", "setting": "[1]", "value": 20, "unit": "h"}, {"measurement": "half-life in tumor", "setting": "[1]", "value": 96, "unit": "h"}, {"measurement": "TL32711 tumor half-life after increase in exposure", "setting": "[2]", "value": 166, "unit": "h"}, {"measurement": "TL32711 tumor half-life before increase in exposure", "setting": "[2]", "value": 56, "unit": "h"}, {"measurement": "increase in tumor exposure for a 4-fold increase in dose", "setting": "[2]", "value": 14, "unit": "fold"}, {"measurement": "Fever, Number of Grade 1 or 2 Events (%)", "setting": "[3]", "value": "4 (11%)"}, {"measurement": "Grade 3 or Grade 4 Adverse Events attributed to study drug", "setting": "[3]", "value": "No Grade 3 or Grade 4 Adverse Events attributed to study drug"}, {"measurement": "Lymphocytopenia, Number of Grade 1 or 2 Events (%)", "setting": "[3]", "value": "2 (6%)"}, {"measurement": "Nausea, Number of Grade 1 or 2 Events (%)", "setting": "[3]", "value": "5 (14%)"}, {"measurement": "Rash, Number of Grade 1 or 2 Events (%)", "setting": "[3]", "value": "3 (8%)"}, {"measurement": "PBMC PARD cleavage and plasma caspase-3 activity", "setting": "[4]", "value": "dose related increase"}, {"measurement": "activated serum caspase-3/7 and cleaved cytokeratin-18 levels", "setting": "[4]", "value": "dose-related"}, {"measurement": "half-life in the patient", "setting": "[5]; human", "value": "long half-life"}, {"measurement": "inter-patient variability in Cmax and AUC", "setting": "[5]; human", "value": "moderate to low"}, {"measurement": "retention (half-life) in tumor tissues", "setting": "[5]; human", "value": 49, "unit": "h"}, {"measurement": "t1/2 in PBMCs", "setting": "[5]; human", "value": "29 to 35", "unit": "h"}, {"measurement": "terminal half-life in plasma", "setting": "[5]; human", "value": 35, "unit": "h"}, {"measurement": "terminal half-life in tumor tissue", "setting": "[5]; human", "value": 52, "unit": "h"}, {"measurement": "plasma terminal t½", "setting": "[5]; human, iv", "value": "73 to 79", "unit": "h"}, {"measurement": "estimated tumor exposure in patients versus primary human tumor xenograft models in mice", "setting": "[5]", "value": "in excess of the measured drug levels"}, {"measurement": "growth inhibition in primary tumor #17624", "setting": "[6]; 30 mg/kg i.p. twice weekly", "value": "significant growth inhibition"}, {"measurement": "significant growth inhibition in primary tumor #12872", "setting": "[6]; 30 mg/kg i.p. twice weekly", "value": "not"}, {"measurement": "T/C in the 2 primary tumors with suboptimal growth inhibition", "setting": "[6]; [11]", "value": "~0.4"}, {"measurement": "T/C in the 6 primary tumors with significant growth arrest/inhibition", "setting": "[6]; [11]", "value": "−0.1 to 0.2"}, {"measurement": "toxicity in the tumor-bearing mice", "setting": "[6]; all dose levels (30, 45, 60 mg/kg i.p. twice weekly)", "value": "No significant toxicity"}, {"measurement": "dose achieving significant growth inhibition in both #17624 and #12872", "setting": "[6]; i.p. twice weekly, dose escalation", "value": ">= 45 mg/kg"}, {"measurement": "anti-tumor activity of biweekly versus weekly dosing schedule", "setting": "[7]; 15 mg/kg twice/week versus 30 mg/kg once/week, primary melanoma model", "value": "did not result in enhanced anti-tumor activity"}, {"measurement": "models with tumor regressions", "setting": "[7]; [12]", "value": "4 of the 6"}, {"measurement": "reduction in bodyweight (tolerability)", "setting": "[7]; [12]", "value": "< 14", "unit": "%"}, {"measurement": "primary melanoma tumor xenografts with significant tumor growth inhibition", "setting": "[7]; single agent TL32711, 30 mg/kg IP", "value": "5 of 6 and 5/6"}, {"measurement": "relation of efficacy to tumor drug exposure", "setting": "[8]", "value": "efficacy correlated with tumor drug exposure"}, {"measurement": "tolerability", "setting": "[9]", "value": "well tolerated"}, {"measurement": "dose-limiting toxicities", "setting": "[9]; [13]", "value": "no dose-limiting toxicities"}, {"measurement": "maximum tolerated dose (MTD)", "setting": "[9]; [13]", "value": "has not been reached"}, {"measurement": "tolerability", "setting": "[9]; listed as Compound 15", "value": "unexpectedly well tolerated"}, {"measurement": "tolerability at 63 mg/m^2", "setting": "[9]; two patients, 63 mg/m^2 weekly, 3 weeks on/1 week off", "value": "not well tolerated"}, {"measurement": "pro-apoptotic effect", "setting": "Panc1; Panc1, TL32711 alone", "value": "dose-dependent pro-apoptotic effect"}, {"measurement": "pro-apoptotic effect with TRAIL co-incubation", "setting": "Panc1; Panc1, TL32711 with TRAIL", "value": "synergized"}, {"measurement": "cIAP1 degradation and caspase-3 activation", "setting": "Panc1; Panc1, immunoblotting", "value": "rapid cIAP1 degradation leading to caspase-3 activation"}, {"measurement": "cycles received before disease progression", "setting": "[10]; [14]", "value": "Patient received 6 cycles (24 weeks) of TL32711 before disease"}, {"measurement": "metastatic lesions decreased on CT scan after 2 cycles", "setting": "[10]; [14]", "value": "CT scan; 3 of 5 metastatic lesions decreased after 2 cycles of"}, {"measurement": "response by RECIST criteria after 2 cycles", "setting": "[10]; [14]", "value": "TL32711 - Stable Disease by RECIST criteria"}, {"measurement": "clinical improvement during first 2 cycles", "setting": "[10]; [15]", "value": "Patient had marked clinical improvement of early satiety and pain"}, {"measurement": "disease progression after 2 cycles", "setting": "[10]; [15]", "value": "Patient progressed with development of a new liver lesion after"}, {"measurement": "patient's CEA after 1 cycle", "setting": "[10]; [15]", "value": "decreased (150 to 90)"}, {"measurement": "photopenic lesion developed in a hepatic metastasis after 1 cycle", "setting": "[10]; [15]", "value": "4-5 cm"}, {"measurement": "disease progression", "setting": "[10]; [16]", "value": "Progressed after 3rd cycle with increasing cutaneous lesions"}, {"measurement": "response by RECIST criteria after 2 cycles", "setting": "[10]; [16]", "value": "Stable Disease by RECIST criteria after 2 cycles of TL32711"}, {"measurement": "anti-tumor activity in patients (overall)", "setting": "[10]; Phase 1 patients", "value": "promising early signs of anti-tumor activity; also recorded: Evidence of anti-tumor activity observed"}, {"measurement": "cIAP1 inhibition in tumors throughout the dosing interval at which significant tumor growth delay and regressions were observed", "setting": "MDA-MB-231 xenograft; mice bearing MDA-MB-231 xenograft", "value": "> 75", "unit": "%"}, {"measurement": "doses causing significant tumor growth inhibition and regressions", "setting": "MDA-MB-231 xenograft; q3D, MDA-MB-231 xenograft", "value": "≥ 2.5", "unit": "mg/kg"}]}
